Results from patent US6521215B2, “Compositions and methods for tooth treatment” (priority 1999, dated 2003).

What was measured:
[1] = scanning electron microscope, 5000× magnification
[2] = Attin et al., 1997, cited from earlier work
[3] = enamel exposed to 10% carbamide peroxide; McCracken and Haywood, 1996; cited from earlier work
[4] = Protease enhanced tooth whitening, shade comparison of left and right halves of the enamel surface in vitro; design: species or system human; settings: protease slurry (papain in distilled water) alone vs untreated half of tooth
Description: In this experiment, specimens were prepared in vitro by dividing the enamel surface of the teeth into left and right halves with a visible light cured polymer. This allowed a shade comparison of one side to the other. Specimens were divided into two groups. In both groups, one side of the teeth received an application of protease. Protease slurry was prepared by mixing papain (papaya, crude, Type III) with distilled water and applied via a syringe tip applicator. One group of specimens was then immersed in 30% hydrogen peroxide solution. The other group received no further treatment. Thus, in the first group, one-half of the tooth was first treated with papain and then with hydrogen peroxide, and the second half of the tooth was treated with only hydrogen peroxide. In the other group, one-half of the tooth was treated with papain and the second half of the tooth was untreated.

OO [hydrogen peroxide]
microscopic pitting of the enamel surface [1]: not seen

NC(N)=O.OO [carbamide peroxide]
enamel microhardness ([2]; 10% carbamide peroxide (Opalescence®)): significantly decreased
amount of calcium lost from enamel (average) [3]: 1.06 micrograms/mm^2

F [fluoride]
hardness of bleached enamel specimens after application ([2]; high concentration fluoride application): restore hardness

B1: papain (protein, UniProt P00784 134-345, looked up)
Papain: IPEYVDWRQKGAVTPVKNQGSCGSCWAFSAVVTIEGIIKIRTGNLNEYSEQELLDCDRRSYGCNGGYPWSALQLVAQYGIHYRNTYPYEGVQRYCRSREKGPYAAKTDGVRQVQPYNEGALLYSIANQPVSVVLEAAGKDFQLYRGGIFVGPCGNKVDHAVAAVGYGPNYILIKNSWGTGWGENGYIRIKRGTGNSYGVCGLYTSSFYPVKN
modifications: crude preparation
notes: Protease slurry prepared by mixing papain (papaya, crude, Type III) with distilled water
whitening effect (change in shade) of treated tooth side [4]: will remove stains and “whiten” a tooth
